Results taken from paper PMC11466185, “Mechanisms and efficacy of small molecule latency-promoting agents to inhibit HIV reactivation ex vivo” (JCI Insight, 2024).
“And” between values parts separate entries of the source, which are not always exact repeats. Identical values can stand only once.

Tested on: HIV transcripts (TAR, LLTR, Pol, PolyA, TatRev)
Experiment: Latency reversal assay: cell-associated HIV transcripts (RT-ddPCR) 24 hours after anti-CD3/CD28 activation of PBMCs from ART-suppressed PWH
Assay type: cell-based
Design: key to TatRev: % of activated DMSO control, normalized to 1 μg total RNA; Elongated (LLTR) HIV transcripts, median relative to activated DMSO, initial screening / Midtranscribed (Pol) HIV transcripts, median relative to activated DMSO, initial screening / Multiply spliced (TatRev) HIV transcripts, median relative to activated DMSO, initial screening: concentration or dose not given beside the values
Settings: for Effect on HIV transcripts in the initial drug screen (in words): 24 hours after activation; for HIV transcriptional elongation, ratio LLTR/TAR: Figure 3B; for Elongated (LLTR) HIV transcripts, median relative to activated DMSO, initial screening / Midtranscribed (Pol) HIV transcripts, median relative to activated DMSO, initial screening / Multiply spliced (TatRev) HIV transcripts, median relative to activated DMSO, initial screening: Supplemental Figure 2; for Multiply spliced (TatRev) HIV transcripts, median relative to activated DMSO, initial screening: Figure 1B; for Pol HIV transcripts (DMSO αCD3/28 = 100) / PolyA HIV transcripts (DMSO αCD3/28 = 100) / TatRev HIV transcripts (DMSO αCD3/28 = 100): αCD3/28-activated, ruxolitinib 4μM, triptolide 25-50nM, alvocidib 40nM, dinaciclib 8nM, AZD4573 8nM, quercetin 5μM, pladienolide B 10nM, isoginkgetin 25μM, herboxidiene 5nM, KRIBB11 2.5μM, tanespimycin 5μM, mithramycin A 25nM; for PolyA / TatRev: DMSO+αCD3/28 = 100, Fig 3A; for LLTR/TAR / PolyA/LLTR / TatRev/PolyA: DMSO+CD3/28 = 1, Fig 3B, C and D
Procedure: We selected 26 small molecules targeting pathways implicated in HIV transcription or the blocks to HIV transcription underlying latency (Supplemental Table 1). […] Initial screening of all drugs was performed in freshly isolated PBMCs from 2 ART-suppressed individuals (Figure 1 and Supplemental Figure 2). PBMCs were cultured in the presence of individual drugs in DMSO or DMSO alone as a control, subsequently activated (anti-CD3/CD28), and harvested after 24 hours. […] The progression through different blocks to HIV transcription was quantified by measuring the levels of initiated (TAR), 5′ elongated (LLTR), midtranscribed/unspliced (Pol), completed (PolyA), and multiply spliced (TatRev) HIV transcripts. The levels of those HIV transcripts were normalized to 1 μg of total cellular RNA (to normalize for the effect of the drug on global cellular transcription) and expressed as a percentage of the activated DMSO control.
Figure 1 Screening of candidate LPAs by measuring the change in multiply spliced HIV transcripts after activation. Each drug was tested in PBMCs from 2 ART-suppressed study participants (denoted in the legend by varying symbol shapes). PBMCs were aliquoted into wells at 6 × 10^6 cells/well. After activation, the cells were cultured with antiretrovirals in the presence of individual drugs in DMSO or DMSO alone as control. All conditions were tested in the presence of CD3/28 T cell–activating beads, except for the unactivated DMSO condition. (A) After 24 hours, the viability was measured by trypan blue staining and then normalized to the levels of the activated DMSO (% of activated DMSO). Bars indicate medians. (B) Total cellular RNA was extracted, and the levels of multiply spliced HIV transcripts (TatRev) were measured by RT-ddPCR, normalized to 1 μg of total cellular RNA, and expressed as a percentage of the activated DMSO control (% of activated DMSO). RT-dd, reverse transcription digital droplet; vRNA, viral RNA; HAT, histone acetyltransferase.
The ability of our candidate LPAs to inhibit HIV transcriptional progression after activation was examined in PBMCs from a minimum of 7 PWH per drug tested (Figure 3). PBMCs were cultured in the presence of individual drugs in DMSO or in DMSO alone as a control, subsequently activated (anti-CD3/CD28), and harvested after 24 hours.
Each drug was tested in PBMCs from 7 ART-suppressed study participants. The PBMCs were aliquoted into wells at 6 × 10^6 cells/well. After activation, the cells were cultured with antiretrovirals in the presence of individual drugs in DMSO or DMSO alone as control. All conditions were tested in the presence of CD3/28 T cell–activating beads, except for the unactivated DMSO condition. After 24 hours, total RNA was extracted, and the progression through different stages of HIV transcription was quantified by measuring the levels of initiated (TAR), 5′ elongated (LLTR), midtranscribed/unspliced (Pol), completed (PolyA), and multiply spliced (TatRev) HIV transcripts. (A) The levels of all HIV transcripts were normalized to 1 μg of total cellular RNA and expressed as a percentage of the activated DMSO control (% of activated DMSO). Medians are shown as well as the individual values per study participant in different colors. (B–D) The effect of each drug on HIV transcriptional progression after activation was analyzed by the ratio of one HIV transcript to another. Ratios are independent of HIV infection frequency or normalization to cell numbers. Shown are the proportion of (B) all HIV transcripts that were elongated (LLTR/TAR), (C) elongated HIV transcripts that were completed spliced (PolyA/LLTR), and (D) completed transcripts that were multiply spliced (TatRev/PolyA).

[1] = 24 hours, compared with activated DMSO
[2] = initial screening, 2 participants, 24 hours
[3] = 5nM, 24 h after αCD3/28 activation, each column one participant

Molecule: mithramycin A
- Effect on HIV transcripts in the initial drug screen (in words) (initial screening, 2 participants): no effect after 24 hours
- Effect on HIV transcripts in the initial drug screen (in words) (initial screening, 2 participants, listed as Mithramycin A): lack of an effect at 24 hours

Molecule: C=CCNC1=C2C[C@@H](C)C[C@H](OC)[C@H](O)[C@@H](C)/C=C(\C)[C@H](OC(N)=O)[C@@H](OC)/C=C\C=C(/C)C(=O)NC(=CC1=O)C2=O [tanespimycin]
- HIV transcriptional elongation, ratio LLTR/TAR [1]: inhibited
- Elongated (LLTR) HIV transcripts, median relative to activated DMSO, initial screening [2]: 49%
- Midtranscribed (Pol) HIV transcripts, median relative to activated DMSO, initial screening [2]: 31%

Molecule: CC(C)[C@]12O[C@H]1[C@@H]1O[C@]13[C@]1(O[C@H]1C[C@H]1C4=C(CC[C@@]13C)C(=O)OC4)[C@@H]2O [triptolide]
- HIV transcriptional elongation, ratio LLTR/TAR [1]: no impact
- HIV transcriptional completion, ratio PolyA/LLTR (24 hours, compared with activated DMSO, Figure 3C): reduced completion
- HIV multiple splicing, ratio TatRev/PolyA (24 hours, compared with activated DMSO, Figure 3D): reduce HIV multiple splicing
- Decrease in initiated TAR transcripts (after activation, relative to activated DMSO): more than 95%
- Multiply spliced (TatRev) HIV transcripts, median relative to activated DMSO, initial screening [2]: 0%
- Elongated (LLTR) HIV transcripts, median relative to activated DMSO, initial screening [2]: 21%
- Midtranscribed (Pol) HIV transcripts, median relative to activated DMSO, initial screening [2]: 9%

Molecule: CO[C@H]([C@@H](C)[C@H]1O[C@]1(C)C[C@H](C)/C=C/C=C(\C)[C@H]1O[C@@H](CC(=O)O)CC[C@@H]1C)[C@@H](C)O [herboxidiene]
- LLTR HIV transcripts (DMSO+αCD3/28 = 100) [3]: 81.19 and 43.81 and 65.61 and 39.82 and 46.55 and 19.9 and 41.59
- Pol HIV transcripts (DMSO+αCD3/28 = 100) [3]: 51.16 and 73 and 22.91 and 16.22 and 3.35 and 168.38
- TAR HIV transcripts (DMSO+αCD3/28 = 100) [3]: 84.02 and 77.63 and 124.48 and 122.07 and 106.99 and 116.67
- TatRev HIV transcripts (DMSO+αCD3/28 = 100) [3]: 33.33 and 25.2 and 10.9 and 51.8 and 0 (2×)
- HIV transcriptional elongation, ratio LLTR/TAR [1]: Significant reductions
- Reduction of multiply spliced or completed HIV transcripts in drug screen (selection as candidate LPA) [2]: more than 50%
- Multiply spliced (TatRev) HIV transcripts, median relative to activated DMSO, initial screening [2]: 23%
- Pol HIV transcripts (DMSO αCD3/28 = 100) (participant 150b): 43.29
- PolyA HIV transcripts (DMSO αCD3/28 = 100) (participant 150b): 23.53
- TatRev HIV transcripts (DMSO αCD3/28 = 100) (participant 150b): 2.69
- Pol HIV transcripts (DMSO αCD3/28 = 100) (participant 1379): 47.94
- PolyA HIV transcripts (DMSO αCD3/28 = 100) (participant 1379): 28.08
- TatRev HIV transcripts (DMSO αCD3/28 = 100) (participant 1379): 171.43
- Pol HIV transcripts (DMSO αCD3/28 = 100) (participant 2027): 133.33
- PolyA HIV transcripts (DMSO αCD3/28 = 100) (participant 2027): 36.92
- TatRev HIV transcripts (DMSO αCD3/28 = 100) (participant 2027): 0
- Pol HIV transcripts (DMSO αCD3/28 = 100) (participant 2147a): 105.88
- PolyA HIV transcripts (DMSO αCD3/28 = 100) (participant 2147a): 21.76
- TatRev HIV transcripts (DMSO αCD3/28 = 100) (participant 2147a): 28.42
- Pol HIV transcripts (DMSO αCD3/28 = 100) (participant 2161): 169.45
- PolyA HIV transcripts (DMSO αCD3/28 = 100) (participant 2161): 268.67
- TatRev HIV transcripts (DMSO αCD3/28 = 100) (participant 2161): 176.87
- Pol HIV transcripts (DMSO αCD3/28 = 100) (participant 2256): 18.46
- PolyA HIV transcripts (DMSO αCD3/28 = 100) (participant 2256): 16.27
- TatRev HIV transcripts (DMSO αCD3/28 = 100) (participant 2256): 1.4
- PolyA HIV transcripts (DMSO αCD3/28 = 100) (participant 2461): 1692.31
- Pol HIV transcripts (DMSO αCD3/28 = 100) (participant 5557): 23.16
- PolyA HIV transcripts (DMSO αCD3/28 = 100) (participant 5557): 23.33
- TatRev HIV transcripts (DMSO αCD3/28 = 100) (participant 5557): 0
- Multiply spliced HIV transcripts (TatRev) (Fig 1B) (study participant 150a, 24 hours): 33.33 % of activated DMSO
- PolyA (study participant 150a): 73.21
- TatRev (study participant 150a): 33.33
- LLTR/TAR (study participant 1379): 0.186
- PolyA/LLTR (study participant 1379): 0.4248
- TatRev/PolyA (study participant 1379): 0
- PolyA (study participant 1379): 8.45
- TatRev (study participant 1379): 0
- LLTR/TAR (study participant 2027): 0.85
- PolyA/LLTR (study participant 2027): 0.67
- PolyA (study participant 2027): 43.76
- Multiply spliced HIV transcripts (TatRev) (Fig 1B) (study participant 2147b, 24 hours): 12.13 % of activated DMSO
- LLTR/TAR (study participant 2147b): 0.2964
- PolyA/LLTR (study participant 2147b): 0.9546
- TatRev/PolyA (study participant 2147b): 0.3499
- PolyA (study participant 2147b): 22.4
- TatRev (study participant 2147b): 10.9
- LLTR/TAR (study participant 2256): 0.3813
- PolyA/LLTR (study participant 2256): 0.9973
- TatRev/PolyA (study participant 2256): 1.116
- PolyA (study participant 2256): 46.43
- TatRev (study participant 2256): 51.8
- LLTR/TAR (study participant 2750): 0.5214
- PolyA/LLTR (study participant 2750): 1.543
- TatRev/PolyA (study participant 2750): 0.3728
- PolyA (study participant 2750): 67.59
- TatRev (study participant 2750): 25.2
- LLTR/TAR (study participant 5557): 0.3565
- PolyA/LLTR (study participant 5557): 0.117
- TatRev/PolyA (study participant 5557): 0
- PolyA (study participant 5557): 4.86
- TatRev (study participant 5557): 0
